From patent publication US20240293405A1, “(1H-PYRROLO[2,3-B]PYRIDIN-1-YL)PYRIMIDIN-2-YL-AMINO-PHENYL-ACRYLAMIDE INHIBITORS OF EGFR FOR USE IN THE TREATMENT OF BRAIN TUMORS” (Dana-Farber Cancer Institute, Inc., priority 2021, published 2024)
“And” between values parts separate entries of the source, which are not always exact repeats. Identical values can stand only once. Like-named read-outs stand apart in the source and are kept apart here.

Key:
[1] = test system: 293-EGFRvIII cells; assay: Cell viability of 293-EGFRvIII cells (CellTiter-Glo); type: cell-based, human; settings: for IC50: Homo sapiens, read-out: IC50, viability of 293-EGFRvIII cells
Protocol: Cells were seeded in 96-well plates at a density of 1,000 cells per well and treated with two-fold serial dilutions of compounds with a starting concentration of 20 μM. Cell viability was assessed after three days of treatment by CellTiter-Glo (Promega). Curve fitting analysis and IC50 value determination were performed using GraphPad Prism 8.

[2] = test system: CPEvIII GBM; assay: Intracranial orthotopic CPEvIII allograft in mice; type: in vivo, mouse
Protocol: Cells (100,000 cells resuspended in 1 μl PBS) were intracranially injected into the right striatum (0 mm anterior, 2 mm lateral, and 2.5 mm ventral to bregma) of 8-10 week-old ICR-SCID mice. Animals were monitored daily for development of neurological defects.
Neural stem cells (NSCs) from E14.5 embryonic mice (Cdkn2a-null; Ptenf/f) striata were isolated and cultured as previously described (Rietze, R. L., and Reynolds, B. A. (2006). Methods in enzymology 419, 3-23). NSCs were infected twice with adenovirus expressing Cre recombinase (AdCre; MOI50) (University of Iowa) to knock out floxed Pten. Cells were then transduced with retrovirus expressing EGFRvIII (pBabe-puro-EGFRvIII) (from Dr. Charles Stiles, DFCI) and selected with 1 μg/ml puromycin. The resulting cells (Cdkn2anull; Ptennull; EGFRvIII, denominated CPEvIII) can form a glioma after grafted into the mouse brain. Tumors were then isolated and mechanically dissociated for expansion in vitro and in vivo.
In GBM, EGFR mutations frequently coexist with CDKN2A deletion and PTEN deficiency (Brennan, C. W., et al. (2013). Cell 155, 462-477; Cancer Genome Atlas Research, N. (2008). Nature 455, 1061-1068). A syngeneic genetically engineered mouse (GEM) model of GBM driven by Cdkn2a and Pten double deletion concomitant with EGFRvIII expression (termed CPEvIII) has been generated. […]

[3] = Brain and plasma exposure after single oral dose; type: in vivo, Sprague Dawley rats; settings: own data, oral dosing in rats
Description: Genfitinib concentrations were quantitated by LC-MS/MS from brain and plasma from Group 1 animals.

[4] = Brain and plasma exposure after 5 hour intravenous infusion; type: in vivo, Sprague Dawley rats; settings: for Kp at 5 h / concentration at 5 h / concentration at 0.083 h / concentration at 1 h / concentration at 2 h / concentration at 3 h: 3 mg/kg
Protocol: A single IV infustion for 5 hours was administered to each animal, which were then twice observed clinically (30 minutes to 1 hour post-posing and at the end of the study (TTerminal). Blood samples were collected at 5 time points from each animal over the 5 hour infusion period (5 minutes, 1 hour, 2, hours, 3 hours and TTerminal) and processed to plasma. Brains were collected at Tterminal (blotted, weighed, and snap frozen) and brain exposure was compared. […]

[5] = test system: 468 human kinases and disease relevant mutant variants; assay: Kinase selectivity binding panel (468 kinases); settings: 468 kinase panel, 1 μM free base
Protocol: Compound 1 and Compound 2 (major metabolite) were evaluated in a panel of 468 human kinases and disease relevant mutant variants. Compound 1 and Compound 2 bound to few non-mutant kinases at <1% of control. […] While there is some variability between Compound 1 and Compound 2, it is clear that both compounds are very effective at binding to a large panel of mutant kinases. […] Binding constant to wild type EGFR was 4.9 nM.

[6] = PC-9 SQ lung tumor xenograft in NOD.SCID mice; type: in vivo; settings: mouse, plasma, PC-9 model, 4 hours post-dose, oral, read-out: plasma concentration at which anti-tumor activity was noted
Protocol: Compound 1 was also evaluated in xenograft models of lung tumor cell lines harboring EGFR single and double mutations in the mouse.

[7] = Comparative plasma protein binding; type: in vitro ADME; settings: human, monkey, dog, rat, mouse, across species, independent of concentration, read-out: plasma protein bound
Description: Compound 1 was highly protein bound (95.6 to 98.7%) to plasma protein across species. Binding was independent of concentration.

[8] = In vivo metabolite identification; set-up: species or system rat, dog and monkey
Description: In in vivo studies in rat, dog and monkey, 35 metabolites were identified. The major circulating compound in all species was parent compound; parent was also a major component in rat feces. Compound 2, demethylated metabolite, was a major active metabolite in all species in plasma and in rat feces. M34, glutathione conjugation and hydrolysis and acetylation metabolite, was a major metabolite in rat urine. Compound 1 was extensively metabolized during excretion with 31 metabolites in rat urine and 32 metabolites in rat feces.

[9] = Oral rat dose-range toxicity study; type: in vivo
Protocol: Male and female Sprague-Dawley rats were given Compound 1 orally by gavage either once (30, 100, 500, 1000 mg/kg/day) or once daily for up to 14 days (30, 100, 300 mg/kg/day). […] […]; this group was terminated on Day 9. […] The STD10 was estimated to be 100 mg/kg/day in this study.

[10] = test system: H1975 cells (L858R/T790M); settings: Wang 2020, read-out: IC50, growth inhibition; cited from earlier work
[11] = test system: BT179 cells; assay: Cell viability, patient-derived GBM line BT179; settings: Homo sapiens, 72 h
Protocol: (§1) Primary human glioblastoma lines BT112, BT179 and BT333 were maintained in NeuroCult proliferation medium (human) (StemCell Technologies) with 20 ng/ml EGF, 10 ng/ml FGF and 0.0002% Heparin.

[12] = test system: BT333 cells; assay: Cell viability, patient-derived GBM line BT333; settings: Homo sapiens, 72 h
Protocol: as §1

[13] = 3 mg/kg IV infusion over 5 h, 5 h, individual animal, Compound 2 as metabolite in Compound 1-dosed rats
[14] = Sprague Dawley, rat, brain, other: continuous intravenous infusion and oral dosing, rat, estimated steady state by continuous intravenous infusion and oral dosing, read-out: whole brain exposure relative to plasma

C=CC(=O)Nc1cc(Nc2nccc(-n3ccc4cccnc43)n2)c(OC)cc1N(C)CCN(C)C [Compound 1, N-(5-((4-(1H-pyrrolo[2,3-b]pyridin-1-yl)pyrimidin-2-yl)amino)-2-((2-(dimethylamino)ethyl)(methyl)amino)-4-methoxyphenyl)acrylamide]
fold more active than erlotinib (viability) ([1]; HEK293-EGFRvIII cells): 3 fold
fold more active than gefitinib (viability) ([1]; HEK293-EGFRvIII cells): 10 fold
IC50 ([1]; 72 h, 3 days treatment, CellTiter-Glo): 1480 nM
IC50 ([1]; unit as printed in b643 for Compound 1): 1480 nM
body weight during treatment ([2]; 75 mg/kg QD): no significant loss of body weight
phosphorylation levels of EGFRvIII in tumors (IHC) ([2]; tumors at end point, 75 mg/kg): reduced
Brain Penetration (% of B/P ratio in preclinical model) [3]: 2830% (oral)
Plasma Concentration ([4]; 3 mg/kg IV infusion over 5 h, 0.083 h, individual animal, Compound 2 as metabolite in Compound 1-dosed rats): 14.2 ng/mL and 13.5 ng/mL and 12.8 ng/mL and 13.1 ng/mL and 11.3 ng/mL and 14.3 ng/mL
Plasma Concentration ([4]; 3 mg/kg IV infusion over 5 h, 1 h, individual animal, Compound 2 as metabolite in Compound 1-dosed rats): 63.5 ng/mL and 54.8 ng/mL and 59.6 ng/mL and 44.2 ng/mL and 51.1 ng/mL and 63.0 ng/mL
Plasma Concentration ([4]; 3 mg/kg IV infusion over 5 h, 2 h, individual animal, Compound 2 as metabolite in Compound 1-dosed rats): 93.4 ng/mL and 84.2 ng/mL and 81.6 ng/mL and 70.7 ng/mL and 71.9 ng/mL and 70.1 ng/mL
Plasma Concentration ([4]; 3 mg/kg IV infusion over 5 h, 3 h, individual animal, Compound 2 as metabolite in Compound 1-dosed rats): 95.5 ng/mL and 93.7 ng/mL and 106 ng/mL and 89.5 ng/mL and 94.7 ng/mL and 120 ng/mL
Brain Tissue Concentration [4, 13]: 2380 ng/g and 2400 ng/g and 2020 ng/g and 2000 ng/g and 1980 ng/g and 2640 ng/g
Brain/Plasma (ratios) [4, 13]: 18.5 and 20.5 and 18.2
Plasma Concentration [4, 13]: 107 ng/mL and 120 ng/mL and 109 ng/mL and 97.4 ng/mL and 119 ng/mL
Kp at 5 h [4, 14]: > 20
Kp [4, 14]: 20
concentration at 5 h ([4]; male, Sprague Dawley, rat, brain, intravenous, 3 mg/kg IV infusion over 5 h, 5 h, individual animal, Compound 2 as metabolite in Compound 1-dosed rats, read-out: Brain Tissue Concentration): 2640 ng/g
concentration at 5 h ([4]; male, Sprague Dawley, rat, brain, intravenous, 3 mg/kg IV infusion over 5 h, 5 h, mean n=6, Compound 2 as metabolite, read-out: Brain Tissue Concentration): 2240 ng/g
Kp at 5 h ([4]; male, Sprague Dawley, rat, brain, intravenous, rats with continuous infusion, read-out: brain/plasma ratio): ~20
Kp at 5 h ([4]; male, Sprague Dawley, rat, brain, iv, 3 mg/kg IV infusion over 5 h, 5 h, individual animal, Compound 2 as metabolite in Compound 1-dosed rats, read-out: Brain/Plasma (ratios)): 22.2
Kp at 5 h ([4]; male, Sprague Dawley, rat, brain, iv, 3 mg/kg IV infusion over 5 h, 5 h, mean n=6, Compound 2 as metabolite, read-out: Brain/Plasma (ratios)): 20.3
concentration at 0.083 h ([4]; male, Sprague Dawley, rat, plasma, intravenous, 3 mg/kg IV infusion over 5 h, 0.083 h, individual animal, Compound 2 as metabolite in Compound 1-dosed rats): 14.3 ng/mL
concentration at 0.083 h ([4]; male, Sprague Dawley, rat, plasma, intravenous, 3 mg/kg IV infusion over 5 h, 0.083 h, mean n=6, Compound 2 as metabolite): 13.2 ng/mL
concentration at 1 h ([4]; male, Sprague Dawley, rat, plasma, intravenous, 3 mg/kg IV infusion over 5 h, 1 h, individual animal, Compound 2 as metabolite in Compound 1-dosed rats): 63 ng/mL
concentration at 1 h ([4]; male, Sprague Dawley, rat, plasma, intravenous, 3 mg/kg IV infusion over 5 h, 1 h, mean n=6, Compound 2 as metabolite): 56 ng/mL
concentration at 2 h ([4]; male, Sprague Dawley, rat, plasma, intravenous, 3 mg/kg IV infusion over 5 h, 2 h, individual animal, Compound 2 as metabolite in Compound 1-dosed rats): 70.1 ng/mL
concentration at 2 h ([4]; male, Sprague Dawley, rat, plasma, intravenous, 3 mg/kg IV infusion over 5 h, 2 h, mean n=6, Compound 2 as metabolite): 78.7 ng/mL
concentration at 3 h ([4]; male, Sprague Dawley, rat, plasma, intravenous, 3 mg/kg IV infusion over 5 h, 3 h, individual animal, Compound 2 as metabolite in Compound 1-dosed rats): 120 ng/mL
concentration at 3 h ([4]; male, Sprague Dawley, rat, plasma, intravenous, 3 mg/kg IV infusion over 5 h, 3 h, mean n=6, Compound 2 as metabolite): 99.9 ng/mL
concentration at 5 h ([4]; male, Sprague Dawley, rat, plasma, intravenous, 3 mg/kg IV infusion over 5 h, 5 h, individual animal, Compound 2 as metabolite in Compound 1-dosed rats, read-out: Plasma Concentration): 119 ng/mL
concentration at 5 h ([4]; male, Sprague Dawley, rat, plasma, intravenous, 3 mg/kg IV infusion over 5 h, 5 h, mean n=6, Compound 2 as metabolite, read-out: Plasma Concentration): 110 ng/mL
Brain Penetration (% of B/P ratio in preclinical model) ([4]; own data, infusion in rats): 2000% (infusion)
targeted non-mutant kinases (bound at <1% of control) [5]: MAST1, PAK4, PDGFRB and ULK3
concentration at 4 h [6]: 1500 ng/mL and 3.1 µM
fraction unbound [7]: 0.013 to 0.044
number of metabolites in rat feces ([8]; in vivo): 32
number of metabolites in rat urine ([8]; in vivo): 31
number of metabolites identified in vivo ([8]; rat, dog and monkey): 35
tolerability of a single oral dose ([9]; 30 to 1000 mg/kg): well tolerated
toxicity at 30 mg/kg/day ([9]; 14 days): No significant toxicity
STD10 ([9]; up to 14 days oral, estimated): 100 mg/kg/day
IC50 [10]: 4.39 nM
IC50 [11]: 893 nM
IC50 [12]: 3280 nM
